Laboratory results published in patent US5260210A, “Blood-brain barrier model” (priority 1990, dated 1993).
Values joined by “and” are separate entries in the source; they are usually repeats but may differ in a detail not shown here. Identical values can stand only once. Like-named read-outs stand apart in the source and are kept apart here.

Columns and labels:
brain endothelial cells = assay: Leukocyte binding to cultures of blood brain barrier endothelial cells; format: cell-based, bovine or human; settings: Table 14; Jurkat T-cell; + TNFα; two values per cell
Method: When used to treat lymphocytes, the anti-β-1 hybridoma supernatant was used at a 1:2 dilution. The anti-α-4 antibody was purified by the manufacturer, and used at a 5 μg/ml concentration. The anti-β-2 was purified by the manufacturer, and used at 5 μg/ml. For treatment of lymphocytes, the lymphocytes were mixed with the above concentrations of antibody, and allowed to incubate on ice for a about 30 minutes prior to use. The cells were washed to remove unbound antibody, and resuspended in RPMI to a typical concentration of 10^7 cells/ml.
Bovine or human brain endothelial cells were maintained in accordance with the blood brain barrier model as described in the present specification. […]
In this manner, the endothelial cells were exposed to the agent on their ablumenal surface, as would be the typical situation during an inflammatory reaction in the brain. Immediately before the assay, the electrical resistance of the cultures was measured and the filters (supporting the endothelial cells) were washed at room temperature by dipping in three separate vats of D-MEM with 1% FBS and 20 mM Hepes (200 mls. each). […]
In the second method, the leukocytes were prelabeled with a radioactive tracer and the degree of binding was quantified by measuring the amount of radioactivity associated with the entire endothelial surface on the culture filter. […]

[1] = test system: bovine brain capillary endothelial cells; assay: Transmonolayer (transendothelial cell) electrical resistance in the in vitro BBB model; settings: for activity at 0.2 µM / activity at 0.01 µM / activity at 0.03 µM / activity at 0.1 µM: Bos taurus, Endothelial cell, read-out: Resistance (% of control); for effect of phosphodiesterase inhibitors on resistance: FIG. 7, Rolipram or RO-20-1724 17.5 μM, by 30 minutes, no other cyclic AMP elevating agents
Method: The degree of tightness of tight junctions can be also assessed by transcellular electrical resistance measurements. For transendothelial cell resistance measurements, cells were grown on a porous solid support, e.g., a filter or membrane attached to a holding device in order adequately to suspend the cellular monolayer, such as the Costar Transwell apparatus or the ICN Cellogen. […] Cells were maintained in a growth medium or physiological saline, and calomel electrodes on each of the endothelial cells are connected by a saturated KCl - 3% agar bridge. Current is passed between two Ag--AgCl electrodes and the voltage measured with a Keithly multimeter. Resistance is calculated from the change in voltage across the monolayer induced when a short current pulse (10-100 μamp) is applied. The resistance of the filter or membrane alone is subtracted. The resistance, multiplied by the surface area of the filter or membrane, yields the resistance in ohms-cm^2.
Bovine brain capillary endothelial cells were grown on polycarbonate filters in a conditioned growth medium containing either 5% or 10% PDHS. In controls, the growth medium contained 5% PDHS (.quadrature.) or 10% PDHS. […]
Bovine brain endothelial cells were dissociated and plated on tissue culture dishes in 50% MEM/FCS - 50% ADCM. […]
Bovine brain microvascular endothelial cells were isolated and grown on permeable filters in the BBB in vitro model of the invention. Cells were maintained in astrocyte-derived conditioned medium, but were not treated with agents that elevate cyclic AMP levels in such cells.
Resistance was then measured at various times.
The medium containing these cyclic AMP elevating agents was removed, and the cells were washed with fresh growth medium.

blood-brain barrier [2] = assay: In vivo tracer experiment: brain uptake of ^3 H-sucrose and ^125 I-BSA after i.v. injection; design: species or system mouse; settings: Example 11 text
Method: The test compound was delivered to a restrained, unanesthetized mouse (30-35 g) via the tail vein. […] Fifteen or sixty minutes after the injection, the animal, anesthetized with 2% Avertin, was perfused via venipuncture with phosphate buffered saline followed by fixative. The brain was removed immediately, the medulla, pons and hypothalamus excised and the remaining tissue homogenized by passsage through a 3 cc needle into a preweighed scintillation vial containing 1.5 ml Soluene (Packard). The vial was weighed to determine wet tissue weight. Ten ml of Inst-Gel (Packard) was added to each sample after overnight incubation at 75° C. The samples were counted for DPM by liquid scintillation spectrometry. Values are expressed as DPM/gm tissue. A minimum of four animals/group were used for each experiment. Data are expressed as the mean fold-increase which is derived by dividing the treatment value by the control value. Numbers in parenthesis represent the number of experiments carried out for the particular condition.

blood-brain barrier [3] = assay: Brain uptake of ^3 H-sucrose and ^125 I-BSA after intracarotid infusion; format: in vivo
Method: Staurosporine was administered by intracarotid infusion. The transport of ^3 H-sucrose and ^125 I-BSA was then determined. The data in Table 7 represent the amount of radioactivity remaining in the brain after infusion and washout. An average of 3-4 animals was used in each category.

[4] = test system: Type III cyclic GMP-noninhibitable phosphodiesterase; assay: Inhibition of cyclic AMP phosphodiesterase of brain microvascular endothelial cells
blood-brain barrier [5] = settings: in vivo; cited from earlier work
[6] = Behavioral assay: opioid-induced analgesia, hot plate; format: in vivo, mouse; settings: Table 9, enkephalin 20 mg/kg
Method: Morphine and the naturally occurring opioid peptides, endorphin and enkephalin, bind to μ opioid receptors in the brain and suppress the sensation of pain. […] Mice are placed on a surface uniformly heated to 55° C. The time it takes for the mouse to respond to the heat stimulus by licking its front or hind paws is measured. […] The latency is expressed as % analgesia. [formula] The purpose of these experiments is to test the ability of putative BBB openers to shift the morphine dose response curve to lower doses and thus have analgesic activity when delivered peripherally.

bovine endothelial cells [7] = assay: Transport across high resistance monolayers of bovine endothelial cells on filters; format: in vitro ADME; settings: FIG. 3; compared to cell-free filters
Description: Still another means for assessing the tightness of junctions among endothelial cells in the blood-brain model of the invention is to compare the transport of a hydrophilic compound, e.g., sucrose, and a hydrophobic compound of similar size, e.g., chlorambucil, across filters with and without monolayered endothelial cells. When the transmonoloayer resistance is high, the transport of sucrose should be low compared to that of chlorambucil (or other hydrophobic compounds of similar size). Alternatively, when the resistance is high, the transport of sucrose should be much less (e.g., 50-fold or more) than across cell-free filters.

bovine endothelial cells [8] = settings: leaky tight junctions; cited from earlier work
[9] = Table 7, Experiment 1, intracarotid infusion, 3-4 animals

In the case of TNFα, the “lymphocyte binding, Count per Minute” value (brain endothelial cells) was 1430 Count per Minute and 1150 Count per Minute.
In the case of `Nc1ncnc2c1nc(Sc1ccc(Cl)cc1)n2[C@@H]1O[C@@H]2COP(=O)(O)O[C@H]2[C@H]1O` [cyclic AMP analogue, 8-(4-chlorophenylthio) cyclic AMP], the “effect on transmonolayer electrical resistance” value ([1]; Example 1, FIG. 1, 250 μM, 5% PDHS) was “greatly increased transmonolayer electrical resistance”.
In the case of `OC[C@H]1O[C@@H](n2cnc3c(NC4CCCC4)ncnc32)[C@H](O)[C@@H]1O` [CPA, cyclopentyladenosine], the “increase of uptake by brain of small (sucrose) and large (BSA) molecules” value (blood-brain barrier [2]) was no more than 300%.
In the case of `C[C@H](Cc1ccccc1)Nc1ncnc2c1ncn2[C@@H]1O[C@H](CO)[C@@H](O)[C@H]1O` [R-PIA, N^6 -(phenylisopropyl)-adenosine], the “increase of uptake by brain of small (sucrose) and large (BSA) molecules” value (blood-brain barrier [2]) was no more than 300%.
In the case of `C=C[C@@]1(C)CC(=O)[C@]2(O)[C@@]3(C)[C@@H](O)CCC(C)(C)[C@@H]3[C@H](O)[C@H](OC(C)=O)[C@@]2(C)O1` [Forskolin, forskolin], the “enhancement of transmonolayer electrical resistance” value ([1]; brain capillary endothelial cells) was “over 8 fold”.
For `COC(=O)[C@@]1(O)C[C@H]2O[C@]1(C)n1c3ccccc3c3c4c(c5c6ccccc6n2c5c31)C(=O)NC4` [K252a], the “reversibility of effect of protein kinase inhibitors” value [1] was “reversible”, the “effect of protein kinase inhibitors on resistance” value ([1]; 10-200 nM) was “markedly reduce the resistance” and the activity at 0.2 µM ([1]; 1 h) was 79%. The activity at 0.2 µM ([1]; 2.5 h) was 25% and the activity at 0.2 µM ([1]; 24 h) was 24%.
Compound `CN[C@@H]1C[C@H]2O[C@@](C)([C@@H]1OC)n1c3ccccc3c3c4c(c5c6ccccc6n2c5c31)C(=O)NC4` [Staurosporine] has an activity at 0.01 µM ([1]; 1 h) of 108%, an activity at 0.03 µM ([1]; 1 h) of 64% and an activity at 0.1 µM ([1]; 1 h) of 5.5%. It also gave an activity at 0.01 µM ([1]; 2.5 h) of 20%, an activity at 0.03 µM ([1]; 2.5 h) of 7.7% and an activity at 0.1 µM ([1]; 2.5 h) of 0%. It also gave an activity at 0.01 µM ([1]; 24 h) of 5.2%, an activity at 0.03 µM ([1]; 24 h) of 2.3% and an activity at 0.1 µM ([1]; 24 h) of 0%. The “radioactivity remaining in the brain, ^3 H-Sucrose” value (blood-brain barrier [3]) was 8.7 × 10^3 DPM, the “radioactivity remaining in the brain, ^3 H-Sucrose” value (blood-brain barrier [3]; [9]) was 24.3 × 10^3 DPM and the “radioactivity remaining in the brain, ^125 I-BSA” value (blood-brain barrier [3]; [9]) was 835 DPM. The “radioactivity remaining in the brain, ^125 I-BSA” value (blood-brain barrier [3]; Table 7, Experiment 2, intracarotid infusion, 3-4 animals) was 520 DPM and the “effect on entry of tracers into the brain” value (blood-brain barrier [3]; intracarotid infusion) was “enhanced entry into the brain of both small (sucrose) and large (BSA) molecules”.
For `COc1ccc(C2CNC(=O)C2)cc1OC1CCCC1` (stereo not drawn) [Rolipram], the “effect of phosphodiesterase inhibitors on resistance” value [1] was “substantially higher” and the “inhibition of phosphodiesterase” value [4] was “inhibited”.
In the case of `CCCCOc1cc(CC2CNC(=O)N2)ccc1OC` (stereo not drawn) [RO-20-1724], the “effect of phosphodiesterase inhibitors on resistance” value [1] was “substantially higher” and the “inhibition of phosphodiesterase” value [4] was “inhibited”.
In the case of `N[C@@H](Cc1ccc(O)c(O)c1)C(=O)O` [L-DOPA], the “penetration into the brain / BBB crossing” value (blood-brain barrier [5]) is given as “can cross the BBB”.
In the case of `CCCOc1ccccc1-c1nc2nn[nH]c2c(=O)[nH]1` [zaprinast], the “effect of phosphodiesterase inhibitors on resistance” value [1] was “ineffective”.
In the case of `CC(C)C[C@H](NC(=O)[C@H](Cc1ccccc1)NC(=O)CNC(=O)CNC(=O)[C@@H](N)Cc1ccc(O)cc1)C(=O)O` [Enkephalin], the “penetration into the brain / BBB crossing” value (blood-brain barrier [5]) is given as “does not penetrate significantly into the brain”, the “Percent Analgesia” value ([6]; Experiment 1) is given as 2.8% and the “Percent Analgesia” value ([6]; Experiment 2) is given as 6.4%.
In the case of `OC[C@H]1O[C@@](CO)(O[C@H]2O[C@H](CO)[C@@H](O)[C@H](O)[C@H]2O)[C@@H](O)[C@@H]1O` [sucrose], the “transport across filters with cells” value (bovine endothelial cells [7]) is listed as “almost entirely prevented from leaking between the cells” and the “difference in the rate of sucrose across filters with and without cells, previous models” value (bovine endothelial cells [8]) is listed as 3 to 5 fold.
In the case of `Cc1[nH]c(=O)c(C#N)cc1-c1ccncc1` [milrinone], the “effect of phosphodiesterase inhibitors on resistance” value [1] was “ineffective”.
